Reference: ChEMBL document CHEMBL3352486, “Design, synthesis and biological evaluation of metronidazole-thiazole derivatives as antibacterial inhibitors” (Bioorg Med Chem Lett, 2014)
≈ marks a conversion by molar mass, not a printed value.

Key:
[1] = molecular target: T1, Beta-ketoacyl-[acyl-carrier-protein] synthase III (Escherichia coli K-12, UniProt P0A6R0); experiment: Inhibition of Escherichia coli FabH
T1 sequence (P0A6R0 whole entry): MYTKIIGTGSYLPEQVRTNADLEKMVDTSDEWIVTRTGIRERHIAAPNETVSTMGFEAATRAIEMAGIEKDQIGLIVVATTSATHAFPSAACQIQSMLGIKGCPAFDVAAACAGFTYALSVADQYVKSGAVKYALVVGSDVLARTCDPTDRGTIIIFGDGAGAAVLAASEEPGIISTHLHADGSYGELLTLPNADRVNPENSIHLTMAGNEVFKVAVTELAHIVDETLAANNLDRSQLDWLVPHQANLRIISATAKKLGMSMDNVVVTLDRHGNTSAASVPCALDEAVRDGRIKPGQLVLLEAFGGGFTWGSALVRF

[2] = tested on: Pseudomonas aeruginosa; experiment: Antibacterial activity against Pseudomonas aeruginosa after 24 hrs by MTT method; format: functional, organism-based
[3] = tested on: Bacillus thuringiensis; experiment: Antibacterial activity against Bacillus thuringiensis after 24 hrs by MTT method; format: functional, organism-based
[4] = Cytotoxicity against human macrophages assessed as drug level causing microscopically detectable alteration in normal cell morphology after 24 hrs by MTT assay; format: cell-based, Macrophage
[5] = tested on: Bacillus subtilis; experiment: Antibacterial activity against Bacillus subtilis after 24 hrs by MTT method; format: functional, organism-based
[6] = tested on: Escherichia coli; experiment: Antibacterial activity against Escherichia coli after 24 hrs by MTT method; format: functional, organism-based

Row | Compound | IC50 [1] [µM] | IC50 [2] [µg/mL] | IC50 [3] [µg/mL] | CC50 at 24 h [4] [µg/mL] | IC50 [5] [µg/mL] | IC50 [6] [µg/mL]
1 | Cc1ncc([N+](=O)[O-])n1CCOc1ccc(/C=N/Nc2nc(-c3ccccc3Br)cs2)cc1 | 4.9 | 20.6 (≈ 39.1 µM) | 88.4 (≈ 168 µM) | 322 | 27.6 (≈ 52.3 µM) | 26.9 (≈ 51 µM)
2 | Cc1ncc([N+](=O)[O-])n1CCOc1ccc(/C=N\NC(N)=S)cc1 |  | 98.3 (≈ 282 µM) | 88.4 (≈ 254 µM) |  | 103 (≈ 296 µM) | 111 (≈ 318 µM)
3 | Cc1ncc([N+](=O)[O-])n1CCOc1cccc(/C=N\NC(N)=S)c1 |  | 85.6 (≈ 246 µM) | 78.6 (≈ 226 µM) |  | 96.3 (≈ 276 µM) | 89.7 (≈ 257 µM)
4 | Cc1ncc([N+](=O)[O-])n1CCOc1ccc(/C=N/Nc2nc(-c3ccccc3)cs2)cc1 | 5.2 | 38.2 (≈ 85.2 µM) | 15.5 (≈ 34.6 µM) | 467 | 13.1 (≈ 29.2 µM) | 38.3 (≈ 85.4 µM)
5 | COc1ccc(-c2csc(N/N=C/c3ccc(OCCn4c([N+](=O)[O-])cnc4C)cc3)n2)cc1 | 6.1 | 6.3 (≈ 13.2 µM) | 26.2 (≈ 54.8 µM) | 268 | 19.4 (≈ 40.5 µM) | 50.8 (≈ 106 µM)
6 | Cc1ncc([N+](=O)[O-])n1CCOc1ccc(/C=N/Nc2nc(-c3ccc(Br)cc3)cs2)cc1 | 6.2 | 85.3 (≈ 162 µM) | 66.9 (≈ 127 µM) |  | 98.8 (≈ 187 µM) | 43.3 (≈ 82.1 µM)
7 | Cc1ncc([N+](=O)[O-])n1CCOc1ccc(/C=N/Nc2nc(-c3ccc(C(F)(F)F)cc3)cs2)cc1 | 7.2 | 98 (≈ 190 µM) | 78.8 (≈ 153 µM) | 218 | 32.8 (≈ 63.5 µM) | 41.2 (≈ 79.8 µM)
8 | Cc1ncc([N+](=O)[O-])n1CCOc1cccc(/C=N/Nc2nc(-c3ccccc3)cs2)c1 | 8.6 | 21.6 (≈ 48.2 µM) | 53.7 (≈ 120 µM) |  | 118 (≈ 264 µM) | 48.6 (≈ 108 µM)
9 | COc1ccc(-c2csc(N/N=C/c3cccc(OCCn4c([N+](=O)[O-])cnc4C)c3)n2)cc1 | 9.2 | 10.8 (≈ 22.6 µM) | 5.9 (≈ 12.3 µM) | 238 | 1.9 (≈ 3.97 µM) | 28.8 (≈ 60.2 µM)
10 | Cc1ncc([N+](=O)[O-])n1CCOc1cccc(/C=N/Nc2nc(-c3ccc(Br)cc3)cs2)c1 | 20.8 | 83.9 (≈ 159 µM) | 98 (≈ 186 µM) |  | 117 (≈ 223 µM) | 98.3 (≈ 186 µM)
11 | Cc1ncc([N+](=O)[O-])n1CCOc1cccc(/C=N/Nc2nc(-c3ccc(C(F)(F)F)cc3)cs2)c1 | 13.5 | 3.6 (≈ 6.97 µM) | 73 (≈ 141 µM) | 517 | 3.7 (≈ 7.16 µM) | 48.8 (≈ 94.5 µM)
12 | Cc1ncc([N+](=O)[O-])n1CCOc1cccc(/C=N/Nc2nc(-c3ccccc3Br)cs2)c1 | 36.2 | 67.7 (≈ 128 µM) | 58.7 (≈ 111 µM) |  | 15.5 (≈ 29.4 µM) | 75.2 (≈ 143 µM)
13 | NC[C@H]1O[C@H](O[C@H]2[C@H](O)[C@@H](O[C@H]3O[C@H](CO)[C@@H](O)[C@H](N)[C@H]3O)[C@H](N)C[C@@H]2N)[C@H](O)[C@@H](O)[C@@H]1O [KANAMYCIN] | 6.8 |  |  |  |  | 46.3 (≈ 95.6 µM)
